Measured values reported in US5756423A, “Method of controlling plants by inhibition of farnesyl pyrophosphate synthase” (Zeneca Limited, priority 1997, dated 1998).
Where two headings read alike, the source gives them in different places.

Experiments:
[1] = system: wild mustard (Brassica kaber), also known as Sinapis arvensis (SINAR); experiment: post-emergent herbicidal test, wild mustard; format: in vivo; details: Brassica, post-emergence, read-out: SINAR percent control
Description: (§1) Seeds of several different weed species were planted in sandy loam soil containing only trace organic matter. Propagules were sown in individuals rows using one species per row across the width of an aluminum flat (19.5×9.5×6 cm). The grass weeds planted were green foxtail (Setaria viridis) ("SETVI"), wild oat (Avena fatua) ("AVEFA"), barnyard grass (Enchinochloa crusgalli) ("ECHCG"). Broadleaf weeds utilized were wild mustard (Brassica kaber), also known as Sinapis arvensis, ("SINAR"), velvetleaf (Abutilon theophrasti) ("ABUTH") and morningglory (Ipomoea spp.) ("IPOSS"). Additionally, yellow nutsedge (Cyperus esculentus) ("CYPES"), nutlets were sown. Seeding depths ranged from 1.0 to 1.5 cm and plant densities ranged from 3 to 25 plants per row depending on individual plant species.
(§2) The flats were placed into a greenhouse and watered overhead by sprinkling. The greenhouse environmental systems provided the plants with natural and artificial (via metal halide lamps) lighting to attain 14 hours of light per day. Day and night temperatures were maintained at 29° and 21° C. respectively. The plants were grown for 10 to 12 days (or to the appropriate growth stage) prior to compound application. Grasses were sprayed at a 3 to 4 leaf stage and broadleaves at a 1 to 2 leaf stage. Yellow nutsedge was 5 to 7 cm tall at application.
(§3) Solutions of the test compounds were prepared by weighing out 18.8 and 74.7 mg for 1 and 4 kg/ha applications respectively, of the test compound into a 60 ml wide-mouth bottle, then dissolving the compound in 14.0 ml of deionized water containing 0.5% v/v Tween 20' (polyoxyethylene sorbitan monolaurate emulsifier) as a surfactant. Additional solvents, not exceeding 2 ml (15% of spray volume), were used if needed to dissolve the compound.
(§4) The plants were sprayed inside an enclosed linear spray table with the nozzle set at 30.5 cm (12 inches) above the foliage.
(§5) Treated plants were then returned to a greenhouse and watered daily without wetting the foliage.
(§6) The degree of weed control was evaluated 17-21 days after application and recorded as percentage of control as compared to the growth of the same species in an untreated control flat of the same. Percent control is the total injury to the plants due to all factors including: inhibited emergence, stunting, malformation, chlorosis and other types of plant injury. The control ratings range from 0 to 100 percent, where 0% represents no effect with growth equal to the untreated control and where 100% represents complete kill.

[2] = system: farnesyl pyrophosphate synthase in daffodil chromoplasts; experiment: inhibition of farnesyl pyrophosphate synthase in daffodil chromoplasts (14C-isopentenyl pyrophosphate incorporation); format: biochemical, Narcissus pseudonarcissus
Method: The IC50 value may be determined as follows. Daffodil chromoplasts are diluted to a volume of 500 microliters in a buffer containing 0.5M sucrose, 3 mM MgCl2, 1 mM ethylenediaminetetraacetic acid, 20 mM N-tris[hydroxymethyl]methyl-2-aminoethanesulfonic acid, […] N-[2-hydroxyethyl]-piperazine-N'-[2-ethanesulfonic acid], 5 mM L-cysteine, 10 mM sodium fluoride, and 0.1% bovine serum albumin at pH 7.7. The inhibitor to be tested may be dissolved in water other suitable solvent and then added to the reaction mixture. The assay is started by the addition of ^14 C-labeled isopentenyl pyrophosphate (52 Ci/mol) to give a final concentration in the assay of about 3 micromolar. The mixture is incubated at 30° C. with gentle agitation for a period of about 30 min. The reaction may be stopped by the addition of 0.5 mL of saturated NaCl and 2 mL of n-butanol saturated with water. After thorough mixing, the turbid suspensions are centrifuged briefly to separate the layers, and 1 mL of the bright yellow upper butanol layer is added to 10 mL of a suitable scintillation fluid which gives a single phase. The butanol soluble radioactivity is then measured in a scintillation counter.
In addition, the problem of variable quenching differences among different experiments can be essentially eliminated by determining the incorporation of radioactivity relative to controls. Each set of experiments requires two control tubes identical to the test samples except that they contain no inhibitor. One of these is quenched immediately (TO sample) and one is quenched at the end of the normal incubation period (T100 sample).
For each concentration of inhibitor examined the % residual activity is determined from the formula [formula]
Tightly closed daffodil flowers (Narcissus pseudonarcissus) were allowed to open at room temperature. […] Coronae were placed in twice their weight of isolation buffer consisting of 67 mM potassium phosphate, 0.74M sucrose, 5 mM MgCl2, and 0.2% polyvinyl-pyrrolidone at pH 7.6 and were disrupted by 30 seconds of homogenization at high speed in a Waring-type blender. The mixture was filtered through several layers of cheesecloth and 2 layers of 100 micron nylon mesh, and the resulting filtrate was centrifuged at 1000×g for 10 minutes. The pellet was discarded and supernatant was centrifuged at 22,000×g for 20 minutes. […] This solution was centrifuged at 22,000×g for 20 minutes to give orange pellets which were suspended in a buffer of 100 mM tris(hydroxymethyl)aminomethane at pH 7.6 containing 5mM MgCl2 and 2 mM dithiothreitol (1 ml per 10 coronae). This solution was frozen in liquid nitrogen and then stored at -80° C.
Thawed daffodil chromoplasts (100-150 microliters) were diluted to a final volume of 500 microliters in a buffer containing 0.5M sucrose, 3 mM MgCl2, 1 mM ethylenediaminetetraacetic acid, 10 mM N-[2-hydroxyethyl]piperazine-N^1 -[2-ethanesulfonic acid], 5 mM L-cysteine, 10 mM sodium fluoride, and 0.1% bovine serum albumin at pH 7.7. The inhibitor to be tested was dissolved in water or other suitable solvent and was added to the reaction mixture. The assay was started by the addition of ^14 C-labeled isopentenyl pyrophosphate (52 Ci/mol) to give a final concentration in the assay of about 3 micromolar. The mixture was incubated at 30° C. with gentle agitation for a period of about 30 minutes. The reaction was stopped by the addition of 0.5 mL of saturated NaCl and 2 mL of n-butanol saturated with water. After thorough mixing, the turbid suspensions were centrifuged briefly to separate the layers, and 1 mL of the bright yellow upper butanol layer was added to 10 mL of a suitable scintillation fluid which gave a single phase. The butanol soluble radioactivity was then measured in a scintillation counter. Each set of experiments required two control tubes identical to the test samples except that they contain no inhibitor.

[3] = system: yellow nutsedge (Cyperus esculentus) (CYPES); experiment: post-emergent herbicidal test, yellow nutsedge; format: in vivo; details: Cyperus, post-emergence, read-out: CYPES percent control
Description: as §1, §2, §3, §4, §5, §6

[4] = system: velvetleaf (Abutilon theophrasti) (ABUTH); experiment: post-emergent herbicidal test, velvetleaf; format: in vivo; details: Abutilon theophrasti, post-emergence, read-out: ABUTH percent control
Description: as §1, §2, §3, §4, §5, §6

[5] = system: green foxtail (Setaria viridis) (SETVI); experiment: post-emergent herbicidal test, green foxtail; format: in vivo; details: Setaria viridis, post-emergence, read-out: SETVI percent control
Description: as §1, §2, §3, §4, §5, §6

[6] = system: wild oat (Avena fatua) (AVEFA); experiment: post-emergent herbicidal test, wild oat; format: in vivo; details: Avena fatua, post-emergence, read-out: AVEFA percent control
Description: as §1, §2, §3, §4, §5, §6

[7] = system: barnyard grass (Enchinochloa crusgalli) (ECHCG); experiment: post-emergent herbicidal test, barnyard grass; format: in vivo; details: Echinochloa crus-galli, post-emergence, read-out: ECHCG percent control
Description: as §1, §2, §3, §4, §5, §6

[8] = system: morningglory (Ipomoea spp.) (IPOSS); experiment: post-emergent herbicidal test, morningglory; format: in vivo; details: Ipomoea, post-emergence, read-out: IPOSS percent control
Description: as §1, §2, §3, §4, §5, §6

[9] = post-emergent, 1.0 kg/ha (*), 17-21 days after application
[10] = Table I, unit inferred, IC50 values in nM, read-out: IC50
[11] = Table II, unit inferred, IC50 values in nM, read-out: IC50
[12] = post-emergent, 4.0 kg/ha, 17-21 days after application

| Structure (SMILES) | IC50 [2, 11] [nM] | IC50 [2, 10] [nM] | pest or weed control at 4000 g/ha [1, 12] [%] | pest or weed control at 4000 g/ha [3, 12] [%] | pest or weed control at 4000 g/ha [4, 12] [%] | pest or weed control at 4000 g/ha [5, 12] [%] | pest or weed control at 4000 g/ha [6, 12] [%] | pest or weed control at 4000 g/ha [7, 12] [%] | pest or weed control at 4000 g/ha [8, 12] [%] | further results |
| --- | --- | --- | --- | --- | --- | --- | --- | --- | --- | --- |
| O=P(O)(O)C(Cc1ccccn1)P(=O)(O)O [2-(2,2-diphosphonic acid)ethylpyridine, reference compound] |  |  |  |  |  |  |  |  |  | IC50 ([2]; prior-art compounds, daffodil chromoplasts, read-out: IC50 value): 52 nM |
| O=P(O)(O)C(O)(C1CCCN1)P(=O)(O)O (stereo not shown) [Compound 2] | 933 | 933 | 90 | 5 | 0 | 60 | 0 | 0 | 0 |  |
| CCCNCC(P(=O)(O)O)P(=O)(O)O [Compound 3] | 30 | 30 |  |  |  |  |  |  |  | pest or weed control at 1000 g/ha [1]: 100%; pest or weed control at 1000 g/ha [3]: 30%; pest or weed control at 1000 g/ha [4]: 70%; pest or weed control at 1000 g/ha [5]: 100%; pest or weed control at 1000 g/ha [6]: 100%; pest or weed control at 1000 g/ha [7]: 100%; pest or weed control at 1000 g/ha [8]: 95% |
| O=P(O)(O)C(CN1CCCC1)P(=O)(O)O [Compound 4] | 38 |  |  |  |  |  |  |  |  | pest or weed control at 1000 g/ha [1, 9]: 100%; pest or weed control at 1000 g/ha [3, 9]: 5%; pest or weed control at 1000 g/ha [4, 9]: 20%; pest or weed control at 1000 g/ha [5, 9]: 100%; pest or weed control at 1000 g/ha [6, 9]: 60%; pest or weed control at 1000 g/ha [7, 9]: 90%; pest or weed control at 1000 g/ha [8, 9]: 20% |
| CC(C)NCC(P(=O)(O)O)P(=O)(O)O [Compound 6] | 89 | 89 |  |  |  |  |  |  |  | pest or weed control at 4000 g/ha [1]: 100%; pest or weed control at 4000 g/ha [3]: 25%; pest or weed control at 4000 g/ha [4]: 15%; pest or weed control at 4000 g/ha [5]: 60%; pest or weed control at 4000 g/ha [6]: 50%; pest or weed control at 4000 g/ha [7]: 60%; pest or weed control at 4000 g/ha [8]: 70% |
| CN(C)CC(P(=O)(O)O)P(=O)(O)O [Compound 8] | 2900 | 2900 |  |  |  |  |  |  |  | pest or weed control at 4000 g/ha [1]: 85%; pest or weed control at 4000 g/ha [3]: 0%; pest or weed control at 4000 g/ha [4]: 0%; pest or weed control at 4000 g/ha [5]: 50%; pest or weed control at 4000 g/ha [6]: 5%; pest or weed control at 4000 g/ha [7]: 5%; pest or weed control at 4000 g/ha [8]: 5% |
| O=P(O)(O)C(Cn1ccnc1)P(=O)(O)O [Compound 64] |  |  |  |  |  |  |  |  |  | pest or weed control at 1000 g/ha [1, 9]: 100%; pest or weed control at 1000 g/ha [3, 9]: 30%; pest or weed control at 1000 g/ha [4, 9]: 75%; pest or weed control at 1000 g/ha [5, 9]: 100%; pest or weed control at 1000 g/ha [6, 9]: 100%; pest or weed control at 1000 g/ha [7, 9]: 98%; pest or weed control at 1000 g/ha [8, 9]: 100% |

Now from value to compound, other results behind:

| IC50 [2, 11] [nM] | Structure (SMILES) | IC50 [2, 10] [nM] | pest or weed control at 4000 g/ha [1, 12] [%] | pest or weed control at 4000 g/ha [3, 12] [%] | pest or weed control at 4000 g/ha [4, 12] [%] | pest or weed control at 4000 g/ha [5, 12] [%] | pest or weed control at 4000 g/ha [6, 12] [%] | pest or weed control at 4000 g/ha [7, 12] [%] | pest or weed control at 4000 g/ha [8, 12] [%] | further results |
| --- | --- | --- | --- | --- | --- | --- | --- | --- | --- | --- |
| 2090 | O=P(O)(O)C(CN[C@@H]1C[C@H]1c1ccccc1)P(=O)(O)O (relative stereo) [Compound 63] | 2090 |  |  |  |  |  |  |  | pest or weed control at 1000 g/ha [1, 9]: 10%; pest or weed control at 1000 g/ha [3, 9]: 0%; pest or weed control at 1000 g/ha [4, 9]: 20%; pest or weed control at 1000 g/ha [5, 9]: 10%; pest or weed control at 1000 g/ha [6, 9]: 0%; pest or weed control at 1000 g/ha [7, 9]: 5%; pest or weed control at 1000 g/ha [8, 9]: 5% |
| 32 | O=P(O)(O)C(CN1CCCCC1)P(=O)(O)O [Compound 1] | 32 | 100 | 20 | 70 | 100 | 100 | 100 | 100 |  |
| 425 | O=P(O)(O)C(CNC1CCCCC1)P(=O)(O)O [Compound 5] | 425 | 100 | 10 | 60 | 98 | 98 | 98 | 60 |  |
| 239 | CC(C)(C)NCC(P(=O)(O)O)P(=O)(O)O [Compound 7] | 238 | 100 | 15 | 5 | 60 | 85 | 50 | 60 |  |
